The source of these data is patent publication US4245050A, “Process for the preparation of choline oxidase by fermentation” (Kyowa Hakko Kogyo Co., Ltd., priority 1976, dated 1981).

Where a name gives a salt, the structure may show the parent alone. Read-outs that look alike come from different tables or passages of the source.

Experiment [1] deals with choline oxidase derived from B. album KY 4319. Description: Substrate specificity of choline oxidase. The format is biochemical, Brevibacterium album. As to conditions: enzyme 1.5 U/ml; activity on choline chloride defined as 100. As for the experimental part:
(§1) The activity of choline oxidase in the experimental examples and the following examples is determined by oxidizing choline with choline oxidase to produce hydrogen peroxide, decomposing hydrogen peroxide with peroxidase in the presence of phenol and 4-aminoantipyrine to produce the pigment, and measuring the absorbancy of the pigment solution as described below.
(§2) Choline oxidase is dissolved in 0.05 mol/L Tris buffer having a pH of 8.0 to make up a specific concentration (1.5 and 0.4 U/ml respectively in case of choline oxidase derived from KY 4319 and KY 3505 strains). The solutions are then subjected to the same determination of choline oxidase as described above except that the various substances other than choline chloride shown in Table 3 are used as a substrate. The relative activities on the various substrates are calculated by defining the activity on choline chloride as 100.

Experiment [2] relates to choline oxidase derived from C. murisepticum KY 3505. The experiment in a line: Substrate specificity of choline oxidase. Type of experiment: biochemical, Corynebacterium murisepticum. As to conditions: enzyme 0.4 U/ml; activity on choline chloride defined as 100. Here is the method: as §1, §2
Experiment [3] deals with choline oxidase derived from B. album KY 4319.
Experimental: An approximately 4 ml-reactor for measurement of oxygen absorption is kept at 37° C. and an oxygen electrode is inserted therein. Choline oxidase is dissolved in 0.05 mol/L Tris buffer having a pH of 8.0 to make up a concentration of 0.8 U/ml. […] The concentration of oxygen dissolved in the solution is recorded continuously by recorder while stirring the solution. Decrease in oxygen concentration for 5 minutes after the start of the reaction is calculated.
The same procedure as above is repeated except that sodium azide is not added (control).
In experiment [4] the test system is choline oxidase derived from Brevibacterium album KY 4319. As to conditions: for hydrogen peroxide produced from 1 mol of substrate (concluded stoichiometry): conclusion from Table 4; for Amount of hydrogen peroxide [B']: 37° C., 20 minutes, pH 8.0.
Experimental: (§3) In the following Experiment (1) and (2), choline oxidase, derived from Brevibacterium album KY 4319 is used.
In this experiment, 0.05 mol/L Tris buffer (pH 8.0) containing 0.001 mol/L of 4-aminoantripyrine, 0.001 mol/L of phenol and 50 mg/L of peroxidase is used as a color-forming liquid. […] The absorbancy of the reaction mixture is measured at 500 nm. The amount of hydrogen peroxide produced is calculated based on the measured value. The ratio of the amount of the hydrogen peroxide produced (μmol) to the amount of the charged substrate (μmol) is shown in Table 4.
Experiment [5] concerns Brevibacterium album KY 4319.
Experimental: A 0.05 mol/L Tris buffer solution (pH 8.0) containing 0.01 mol/L of 4-aminoantipyrine, 0.01 mol/L of phenol and 5000 U/L of peroxidase is prepared and used as color-forming liquid. […] Reaction is carried out at 37° C. for 20 minutes and then the absorbancy of the solution is measured at 500 nm. The amount of the reacted choline chloride is calculated based on the measured value. The enzyme activity is expressed by "U" which is defined as the amount of enzyme which will decompose 1 μmole of choline in 1 minute under the above-described conditions.
Experiment [6] deals with choline oxidase derived from Brevibacterium album KY 4319. The following applies: for oxygen consumed per 1 mol of substrate (concluded stoichiometry): conclusion from Table 3; for Amount of O2 uptake [B]: 37° C., pH 8.0.
Experimental: as §3
Then, 0.5 ml of 0.05 mol/L Tris buffer (pH 8.0) containing 1.5 U/ml of choline oxidase is put in the side arm, and reaction is carried out at 37° C. During the reaction, the amount of oxygen uptake (volume) is measured at regular intervals of time. The reaction is completed in 30-40 minutes.
Experiment [7] has as its system Corynebacterium murisepticum KY 3505. Here is the method: as §1
In this experimental example, Brevibacterium album KY 4319 and Corynebacterium murisepticum KY 3505 are used. 10 ml portions of a nutrient medium having the following composition are poured into 70 ml-test tubes and sterilized at 120° C. for 15 minutes.
One loopful of the above strains are separately inoculated into the medium in the test tubes, and culturing is carried out with shaking at 30° C. for […].
After the completion of culturing, each of the culture liquors is subjected to centrifugation. The resultant microbial cells are suspended in 10 ml of 0.05 mol/L Tris buffer having a pH of 8.0 and disrupted by ultrasonic generator. The resultant mixture is subjected to centrifugation and choline oxidase activity of the supernatant is measured.

[8] abbreviates: choline chloride 0.5 g/dl (36 mmol/L) in medium.
The mark [9] stands for this setting: choline chloride 1.0 g/dl (72 mmol/L) in medium.
Where [10] appears, read: choline chloride 5.0 g/dl (360 mmol/L) in medium.
Setting [11] is: choline chloride 10.0 g/dl (720 mmol/L) in medium.

In the case of `CN(C)CCO` [2-dimethylaminoethanol, 2-dimethyl-aminoethanol], the “Substrate specificity (relative activity %)” value in experiment [1] came out at 7.3%; in experiment [2], 8.5%.
The like results for `NCC(=O)O` [glycine] were, in that order, 0% and 0%.
Taken in the same sequence, the figures for `CNCC(=O)O` [sarcosine] were 0% and 0%.
Regarding `[N-]=[N+]=[N-]` [sodium azide], the Inhibitor result in experiment [3] is reported as “Inhibitor”. In experiment [3] (1.7×10^-3 mol/L sodium azide, 37° C., pH 8.0, 5 minutes), the “enzyme activity inhibited, compared with the control” value stood at 44.4%.
Consider `NCCO` [ethanolamine hydrochloride], for which the “Substrate specificity (relative activity %)” value in experiment [1] and in experiment [2] was 0% in each case.
Take `C[N+](C)(C)CCO.[Cl-]` [choline chloride]: the “Substrate specificity (relative activity %)” value in experiment [1] and in experiment [2] was 100% throughout. The “hydrogen peroxide produced from 1 mol of substrate (concluded stoichiometry)” value in experiment [4] was 2 mol. For the same compound, the figures for the “[B']/[A'] (hydrogen peroxide produced / charged substrate)” value in experiment [4] (substrate 0.045 μmol), in experiment [4] (substrate 0.090 μmol) and in experiment [4] (substrate 0.180 μmol) were 1.80, 1.67 and 1.72, respectively. For the same compound, the “Amount of hydrogen peroxide [B']” value in experiment [4] (substrate 0.045 μmol) came to 0.081 µmol; in experiment [4] (substrate 0.090 μmol), 0.150 µmol; in experiment [4] (substrate 0.180 μmol), 0.310 µmol. Also, the “amount of hydrogen peroxide produced from 1 mol of substrate” value in experiment [4] (summary of Table 4) fell in the range of 1.67 to 1.80 mol. Besides, the “Activity of choline oxidase” value in experiment [5] (choline chloride 0.1 g/dl (7.2 mmol/L) in medium, 30° C. culture, supernatant of disrupted cells) is 13.0 U/dl; in experiment [5] (setting [8]) it was 35.4 U/dl; in experiment [5] (setting [9]) it was 32.7 U/dl; in experiment [5] (setting [10]) it was 23.4 U/dl; in experiment [5] (setting [11]) it was 15.1 U/dl; in experiment [7] (choline chloride 0.1 g/dl (7.2 mmol/L) in medium), 6.4 U/dl. For the same compound, the “Activity of choline oxidase” value in experiment [7] (setting [8]) worked out at 9.3 U/dl; in experiment [7] (setting [9]), 17.1 U/dl; in experiment [7] (choline chloride 2.0 g/dl (144 mmol/L) in medium) it was 17.5 U/dl; in experiment [7] (setting [10]), 12.8 U/dl; in experiment [7] (setting [11]), 6.7 U/dl. In addition, in experiment [6], the “oxygen consumed per 1 mol of substrate (concluded stoichiometry)” value came to 2 mol. In addition, the entries for the “[B]/[A] (O2 uptake / charged substrate)” value in experiment [6] (substrate 1.25 μmol), in experiment [6] (substrate 2.50 μmol) and in experiment [6] (substrate 5.00 μmol) were 1.87, 1.89 and 1.91, respectively. The figures for the “Amount of O2 uptake [B]” value in experiment [6] (substrate 1.25 μmol), in experiment [6] (substrate 2.50 μmol) and in experiment [6] (substrate 5.00 μmol) were 2.34 µmol, 4.72 µmol and 9.56 µmol, respectively. Moreover, the “amount of oxygen consumed by 1 mol of substrate” value in experiment [6] (summary of Table 3) was 1.87 to 1.91 mol.
On to `CC(=O)OCC[N+](C)(C)C.[Cl-]` [acetylcholine chloride], for which the “Substrate specificity (relative activity %)” value in experiment [1] and in experiment [2] was 0% each time.
Regarding `C[N+](C)(C)CC(=O)O` [betaine], the “Substrate specificity (relative activity %)” value in experiment [1] and in experiment [2] was 0% each time.
As to `CNCCO` [2-methylaminoethanol, 2-methyl-aminoethanol], the figures for the “Substrate specificity (relative activity %)” value in experiment [1] and in experiment [2] were 1.0% and 0%, respectively.
As for `C[N+](C)(C)CC=O` [betaine aldehyde], in experiment [4], the “hydrogen peroxide produced from 1 mol of substrate (concluded stoichiometry)” value came to 1 mol. Further, the figures for the “[B']/[A'] (hydrogen peroxide produced / charged substrate)” value in experiment [4] (substrate 0.045 μmol), in experiment [4] (substrate 0.090 μmol) and in experiment [4] (substrate 0.180 μmol) were 0.78, 0.93 and 0.93, respectively. Further, the “Amount of hydrogen peroxide [B']” value in experiment [4] (substrate 0.045 μmol) is 0.035 µmol; in experiment [4] (substrate 0.090 μmol), 0.084 µmol; in experiment [4] (substrate 0.180 μmol), 0.168 µmol. The “oxygen consumed per 1 mol of substrate (concluded stoichiometry)” value in experiment [6] was 1 mol. The “[B]/[A] (O2 uptake / charged substrate)” value in experiment [6] (substrate 1.25 μmol) stood at 0.88; in experiment [6] (substrate 2.50 μmol), 0.92; in experiment [6] (substrate 5.00 μmol), 0.93. Besides, the “Amount of O2 uptake [B]” value in experiment [6] (substrate 1.25 μmol) came out at 1.10 µmol; in experiment [6] (substrate 2.50 μmol), 2.31 µmol; in experiment [6] (substrate 5.00 μmol) it was 4.67 µmol.
